In patent publication US20150274664A1 (MERCK SHARP & DOHME CORP., priority 2012, published 2015):
pEC50: −log10 of the molar value.

Molecular target: T1, human GPR119 (Homo sapiens, UniProt Q8TDV5)
T1 construct: expressed in transfected cells; host or cells: HEK293
T1 sequence (Q8TDV5 1-335): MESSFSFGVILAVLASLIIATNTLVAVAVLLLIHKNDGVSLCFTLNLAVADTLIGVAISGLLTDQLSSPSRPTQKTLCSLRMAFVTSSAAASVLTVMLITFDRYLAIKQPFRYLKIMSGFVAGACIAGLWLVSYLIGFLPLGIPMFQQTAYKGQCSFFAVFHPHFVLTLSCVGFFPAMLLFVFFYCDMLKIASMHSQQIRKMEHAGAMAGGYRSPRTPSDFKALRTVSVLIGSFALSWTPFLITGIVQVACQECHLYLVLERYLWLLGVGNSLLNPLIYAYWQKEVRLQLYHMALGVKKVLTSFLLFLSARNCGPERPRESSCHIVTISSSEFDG
Assay: Measurement of GPR119 signaling using LANCE 384-well cAMP kit (LCMP assay)
Format: cell-based
Conditions: HEK293 cells stably transfected with human GPR119
In short: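 HEK293 cells stably expressing human GPR119, in stimulation buffer at pH 7.4 with 100 μM phosphodiesterase inhibitors, exposed to a 10-point compound dilution (2.5% DMSO final) for 45 min. cAMP measured by LANCE TR-FRET at 665 nm against a cAMP standard curve, normalized between DMSO basal and an internal agonist maximum, with a 4-parameter fit.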

Row | pEC50 | SMILES
1 | 7.74 | CC(C)c1noc(N2CCC([C@@H]3C[C@H]3CCOc3ccc(N4CCNC4=O)cc3F)CC2)n1 [Example 88, 1-(3-fluoro-4-(2-((1S,2S)-2-(1-(3-isopropyl-1,2,4-oxadiazol-5-yl)piperidin-4-yl)cyclopropyl)ethoxy)phenyl)imidazolidin-2-one]
2 | 7.64 | COCc1noc(N2CCC([C@@H]3C[C@H]3CCOc3ccc(-n4cnnn4)cc3F)CC2)n1 [Example 89, 5-(4-((1S,2S)-2-(2-(2-fluoro-4-(1H-tetrazol-1-yl)phenoxy)ethyl)cyclopropyl)piperidin-1-yl)-3-(methoxymethyl)-1,2,4-oxadiazole]
3 | 7.70 | COCc1noc(N2CCC([C@H]3C[C@@H]3CCOc3ccc(-n4cnnn4)cc3F)CC2)n1 [Example 90, 5-(4-((1R,2R)-2-(2-(2-fluoro-4-(1H-tetrazol-1-yl)phenoxy)ethyl)cyclopropyl)piperidin-1-yl)-3-(methoxymethyl)-1,2,4-oxadiazole]
4 | 7.72 | COCc1noc(N2CCC([C@@H]3C[C@H]3CCOc3ccc(CC(=O)N4CCC4)c(F)c3)CC2)n1 [Example 91, 1-(azetidin-1-yl)-2-(2-fluoro-4-(2-((1S,2S)-2-(1-(3-(methoxymethyl)-1,2,4-oxadiazol-5-yl)piperidin-4-yl)cyclopropyl)ethoxy)phenyl)ethanone]
5 | 7.89 | CCS(=O)(=O)c1ccc(OCC[C@H]2C[C@@H]2C2CCN(c3nc(C(C)C)no3)CC2)c(F)c1 [Example 92, 5-(4-((1R,2R)-2-(2-(4-(ethylsulfonyl)-2-fluorophenoxy)ethyl)cyclopropyl)piperidin-1-yl)-3-isopropyl-1,2,4-oxadiazole]
6 | 7.74 | COCc1noc(N2CCC([C@H]3C[C@@H]3CCOc3ccc(CC(=O)N(C)C)c(F)c3)CC2)n1 [Example 93, 2-(2-fluoro-4-(2-((1R,2R)-2-(1-(3-(methoxymethyl)-1,2,4-oxadiazol-5-yl)piperidin-4-yl)cyclopropyl)ethoxy)phenyl)-N,N-dimethylacetamide]
7 | 7.64 | CC1(OC(=O)N2CCC([C@@H]3C[C@H]3CCOc3ccc(S(C)(=O)=O)c(F)c3)CC2)CC1 [Example 94, 1-methylcyclopropyl 4-((1S,2S)-2-(2-(3-fluoro-4-(methylsulfonyl)phenoxy)ethyl)cyclopropyl)piperidine-1-carboxylate]
8 | 8.59 | CC1(OC(=O)N2CCC([C@H]3C[C@@H]3CCOc3ccc(CC(=O)N4CCC4)c(F)c3)CC2)CC1 [Example 95, 1-methylcyclopropyl 4-((1R,2R)-2-(2-(4-(2-(azetidin-1-yl)-2-oxoethyl)-3-fluorophenoxy)ethyl)cyclopropyl)piperidine-1-carboxylate]
9 | 8.09 | CC1(OC(=O)N2CCC([C@@H]3C[C@H]3CCOc3ccc(-n4cnnn4)cc3F)CC2)CC1 [Example 96, 1-methylcyclopropyl 4-((1S,2S)-2-(2-(2-fluoro-4-(1H-tetrazol-1-yl)phenoxy)ethyl)cyclopropyl)piperidine-1-carboxylate]
10 | 8.38 | CC1(OC(=O)N2CCC([C@@H]3C[C@H]3CCOc3ccc(CC(=O)N4CCC4)c(F)c3)CC2)CC1 [Example 97, 1-methylcyclopropyl 4-((1S,2S)-2-(2-(4-(2-(azetidin-1-yl)-2-oxoethyl)-3-fluorophenoxy)ethyl)cyclopropyl)piperidine-1-carboxylate]
11 | 8.20 | CC1(OC(=O)N2CCC([C@H]3C[C@@H]3CCOc3ccc(CC(=O)N4CCC4)cc3F)CC2)CC1 [Example 98, 1-methylcyclopropyl 4-((1R,2R)-2-(2-(4-(2-(azetidin-1-yl)-2-oxoethyl)-2-fluorophenoxy)ethyl)cyclopropyl)piperidine-1-carboxylate]
12 | 8.06 | CN(C)C(=O)Cc1ccc(OCC[C@@H]2C[C@H]2C2CCN(C(=O)OC3(C)CC3)CC2)cc1F [Example 99, 1-methylcyclopropyl 4-((1S,2S)-2-(2-(4-(2-(dimethylamino)-2-oxoethyl)-3-fluorophenoxy)ethyl)cyclopropyl)piperidine-1-carboxylate]
13 | 8.26 | CN(C)C(=O)Cc1ccc(OCC[C@H]2C[C@@H]2C2CCN(C(=O)OC3(C)CC3)CC2)cc1F [Example 100, 1-methylcyclopropyl 4-((1R,2R)-2-(2-(4-(2-(dimethylamino)-2-oxoethyl)-3-fluorophenoxy)ethyl)cyclopropyl)piperidine-1-carboxylate]
14 | 8.70 | CC1(OC(=O)N2CCC([C@@H]3C[C@H]3CCOc3cc(F)c(CC(=O)N4CCC4)c(F)c3)CC2)CC1 [Example 101, 1-methylcyclopropyl 4-((1S,2S)-2-(2-(4-(2-(azetidin-1-yl)-2-oxoethyl)-3,5-difluorophenoxy)ethyl)cyclopropyl)piperidine-1-carboxylate]
15 | 8.68 | CN(C)C(=O)Cc1c(F)cc(OCC[C@@H]2C[C@H]2C2CCN(C(=O)OC3(C)CC3)CC2)cc1F [Example 102, 1-methylcyclopropyl 4-((1S,2S)-2-(2-(4-(2-(dimethylamino)-2-oxoethyl)-3,5-difluorophenoxy)ethyl)cyclopropyl)piperidine-1-carboxylate]
16 | 9.15 | CC1(OC(=O)N2CCC([C@H]3C[C@@H]3CCOc3cc(F)c(CC(=O)N4CCC4)c(F)c3)CC2)CC1 [Example 103, 1-methylcyclopropyl 4-((1R,2R)-2-(2-(4-(2-(azetidin-1-yl)-2-oxoethyl)-3,5-difluorophenoxy)ethyl)cyclopropyl)piperidine-1-carboxylate]
17 | 9.16 | CN(C)C(=O)Cc1c(F)cc(OCC[C@H]2C[C@@H]2C2CCN(C(=O)OC3(C)CC3)CC2)cc1F [Example 104, 1-methylcyclopropyl 4-((1R,2R)-2-(2-(4-(2-(dimethylamino)-2-oxoethyl)-3,5-difluorophenoxy)ethyl)cyclopropyl)piperidine-1-carboxylate]
18 | 7.82 | CC1(OC(=O)N2CCC([C@@H]3C[C@H]3CCOc3ccc(-n4cnnn4)c(F)c3)CC2)CC1 [Example 105, 1-methylcyclopropyl 4-((1S,2S)-2-(2-(3-fluoro-4-(1H-tetrazol-1-yl)phenoxy)ethyl)cyclopropyl)piperidine-1-carboxylate]
19 | 7.85 | CC1(OC(=O)N2CCC([C@H]3C[C@@H]3CCOc3ccc(-n4cnnn4)c(F)c3)CC2)CC1 [Example 106, 1-methylcyclopropyl 4-((1R,2R)-2-(2-(3-fluoro-4-(1H-tetrazol-1-yl)phenoxy)ethyl)cyclopropyl)piperidine-1-carboxylate]
20 | 7.77 | CC1(OC(=O)N2CCC([C@H]3C[C@@H]3CCOc3ccc(-n4cnnn4)cc3F)CC2)CC1 [Example 107, 1-methylcyclopropyl 4-((1R,2R)-2-(2-(2-fluoro-4-(1H-tetrazol-1-yl)phenoxy)ethyl)cyclopropyl)piperidine-1-carboxylate]
21 | 7.62 | CC1(OC(=O)N2CCC([C@@H]3C[C@H]3CCOc3ccc(CC(=O)N4CCC4)cc3F)CC2)CC1 [Example 108, 1-methylcyclopropyl 4-((1S,2S)-2-(2-(4-(2-(azetidin-1-yl)-2-oxoethyl)-2-fluorophenoxy)ethyl)cyclopropyl)piperidine-1-carboxylate]
22 | 7.66 | CS(=O)(=O)c1ccc(OCC[C@H]2C[C@@H]2C2CCN(c3ncc(Cl)cn3)CC2)nc1 [Example 109, 5-chloro-2-(4-((1R,2R)-2-(2-(5-(methylsulfonyl)pyridin-2-yloxy)ethyl)cyclopropyl)piperidin-1-yl)pyrimidine]
23 | 7.74 | CC(C)c1noc(N2CCC([C@H]3C[C@@H]3CCOc3ccc(S(C)(=O)=O)cn3)CC2)n1 [Example 110, 3-isopropyl-5-(4-((1R,2R)-2-(2-(5-(methylsulfonyl)pyridin-2-yloxy)ethyl)cyclopropyl)piperidin-1-yl)-1,2,4-oxadiazole]
24 | 7.77 | CCS(=O)(=O)c1ccc(OCC[C@@H]2C[C@H]2C2CCN(c3nc(C(C)C)no3)CC2)nc1 [Example 111, 5-(4-((1S ,2S)-2-(2-((5-(ethylsulfonyl)pyridin-2-yl)oxy)ethyl)cyclopropyl)piperidin-1-yl)-3-isopropyl-1,2,4-oxadiazole]
25 | 8.00 | CCc1cnc(N2CCC([C@H]3C[C@@H]3CCOc3ccc(CC(=O)N4CCC4)cn3)CC2)nc1 [Example 115, 1-(azetidin-1-yl)-2-(6-(2-((1R,2R)-2-(1-(5-ethylpyrimidin-2-yl)piperidin-4-yl)cyclopropyl)ethoxy)pyridin-3-yl)ethanone]
26 | 8.01 | CCc1cnc(N2CCC([C@@H]3C[C@H]3CCOc3ccc(CC(=O)N4CCC4)cn3)CC2)nc1 [Example 116, 1-(azetidin-1-yl)-2-(6-(2-((1S,2S)-2-(1-(5-ethylpyrimidin-2-yl)piperidin-4-yl)cyclopropyl)ethoxy)pyridin-3-yl)ethanone]
27 | 7.92 | CCc1cnc(N2CCC([C@H]3C[C@@H]3CCOc3cc(F)cc(F)c3CC(=O)N(C)C)CC2)nc1 [Example 117, 2-(2-(2-((1R,2R)-2-(1-(5-ethylpyrimidin-2-yl)piperidin-4-yl)cyclopropyl)ethoxy)-4,6-difluorophenyl)-N,N-dimethylacetamide]
28 | 7.77 | CCc1cnc(N2CCC([C@@H]3C[C@H]3CCOc3cc(F)cc(F)c3CC(=O)N3CCC3)CC2)nc1 [Example 118, 1-(azetidin-1-yl)-2-(2-(2-((1S,2S)-2-(1-(5-ethylpyrimidin-2-yl)piperidin-4-yl)cyclopropyl)ethoxy)-4,6-difluorophenyl)ethanone]
